Our source for the IC50 and EC50 values is US20250206738A1, “WRN INHIBITORS” (Nimbus Wadjet, Inc., priority 2023, published 2025).

Test [1] concerns the target T1, human Werner helicase (WRN, Uniprot Q14191, amino acids 517-1235 with L1074F point mutation; WRN-BV08) (Homo sapiens, UniProt Q14191, L1074F).
T1 construct: Uniprot Q14191, amino acids 517-1235 with L1074F point mutation; 8xHis (C, cleaved yes); TEV cleavage site (ENLYFQG) (C, cleaved yes); made in house; host or cells: Sf9 insect cells (baculovirus, pFastBac)
The test can be described thus: WRN (BV08) ADP-Glo assay. The test is classed as biochemical. The settings on record: WRN-BV08 (aa 517-1235, L1074F); read-out: ADP-Glo_hWRN_IC50. In short, it runs like this: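 WRN 517-1235 (L1074F, untagged, Sf9-expressed), 0.15 nM, preincubated with compound 15 min at 25 °C, then 60 min with […] and 0.1 nM DNA duplex in Bicine pH 7.5, 1 mM MgCl2, 1% DMSO. ADP-Glo luminescence; % inhibition vs NSC-617145 control, four-parameter IC50 fit.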
For orientation: ADP-Glo turns the ADP formed in a reaction into a luminescent signal.

Test [2] deals with p21 induction in HCT 116 cells. The test can be described thus: p21 induction in cells (In-Cell Western, p21/GAPDH ratio). The settings on record: 24 h compound incubation, read-out: P21_EC50. The test is classed as cell-based. On the procedure:
Example 3: Method for Determining Effect on p21 Induction in Cells
The colon carcinoma cell line HCT 116 was obtained from ATCC and cultured in growth medium consisting of Mccoy's 5A Medium (Gibco 16600108) supplemented with 10% FBS (Transgene FS201-02) and 100 units/mL penicillin-streptomycin (Gibco 15140122) and maintained at 37° C. under 5% CO2. On the day of seeding, 2,000 cells in 30 μL of culture media were plated per well to Poly-D-Lysine 384 Well Black Clear Plates (Biocoat 356663) and incubated overnight at 37° C. under 5% CO2. The following day, compounds were serially diluted in DMSO for a total of 11 test concentrations. The typical starting concentration of compounds was 10 μM with 2-fold dilutions. Next, 150 nL of diluted compound was added in duplicate to the assay plate, using an Echo 655 (Labcyte). The plate was centrifuged at 500 RPM for 1 min and then incubated at 37° C. under 5% CO2 for 24 h. After 24h, medium was removed, and cells were fixed by adding 40 μL of 4% paraformaldehyde solution to each well and incubated for 20 min at room temperature. The plate was then washed 4 times with 100 μL per well of wash buffer (PBS with 0.1% Tween-20) using a microplate washer. Next, 30 μL of ice-cold methanol was added to each well and the plate was incubated at −20° C. for 10 min. The plate was washed 4 times with 100 μL per well of wash buffer by a microplate washer, then 30 μL per well of blocking buffer (Intercept PBS blocking buffer (LI-COR 927-70001) with 0.05% Tween-20) was added and the plate was incubated at room temperature with shaking for 2h. Next, to each test well, 20 μL of primary antibody solution (p21 Waf1/CIP (12D1) RabbitmAb (Cell Signaling Technologies 2947) diluted 1:1000 and GAPDH (D4C6R) Mouse mAb (Cell Signaling Technologies 97166) diluted 1:2000 in blocking buffer) was added and the plate was placed at 4° C., overnight. The following day, the plate was washed 5 times with 100 μL per well of wash buffer using a microplate washer for 5 min. 20 μL per well of secondary antibody (IRDye 680CW Goat anti-Mouse IgG (H+L) (LI-COR 926-68070) diluted 1: 2000 in Blocking Buffer and IRDye 800CW Goat anti-Rabbit IgG (H+L) (LI-COR 926-32211) diluted 1: 2000 in Blocking Buffer) was then added and the plate was stored for 2h in the dark at room temperature with shaking. The plate was then washed 4 times with 100 μL per well of wash buffer again using a microplate washer. Finally, the p21 signal and the GAPDH signal were quantified using a LI-COR Odyssey CLx Imager machine reading at 800 nm and 700 nm, respectively. Each plate contained DMSO control (low control) and an internal reference WRN inhibitor (high control) respectively. For quantitation, the 800 nm/700 nm ratio was calculated for each well to give fold p21 induction and then percent activation for each compound well was calculated as follows (100×(ratio cpd well−ratio low control)/(ratio high control−ratio low control)). EC50 values for each compound were generated after non-linear regression curve fitting using commercially available software.

Read-outs that look alike come from different tables or passages of the source.

T1 sequence (Q14191 with tags, fused parts or gaps L1074F): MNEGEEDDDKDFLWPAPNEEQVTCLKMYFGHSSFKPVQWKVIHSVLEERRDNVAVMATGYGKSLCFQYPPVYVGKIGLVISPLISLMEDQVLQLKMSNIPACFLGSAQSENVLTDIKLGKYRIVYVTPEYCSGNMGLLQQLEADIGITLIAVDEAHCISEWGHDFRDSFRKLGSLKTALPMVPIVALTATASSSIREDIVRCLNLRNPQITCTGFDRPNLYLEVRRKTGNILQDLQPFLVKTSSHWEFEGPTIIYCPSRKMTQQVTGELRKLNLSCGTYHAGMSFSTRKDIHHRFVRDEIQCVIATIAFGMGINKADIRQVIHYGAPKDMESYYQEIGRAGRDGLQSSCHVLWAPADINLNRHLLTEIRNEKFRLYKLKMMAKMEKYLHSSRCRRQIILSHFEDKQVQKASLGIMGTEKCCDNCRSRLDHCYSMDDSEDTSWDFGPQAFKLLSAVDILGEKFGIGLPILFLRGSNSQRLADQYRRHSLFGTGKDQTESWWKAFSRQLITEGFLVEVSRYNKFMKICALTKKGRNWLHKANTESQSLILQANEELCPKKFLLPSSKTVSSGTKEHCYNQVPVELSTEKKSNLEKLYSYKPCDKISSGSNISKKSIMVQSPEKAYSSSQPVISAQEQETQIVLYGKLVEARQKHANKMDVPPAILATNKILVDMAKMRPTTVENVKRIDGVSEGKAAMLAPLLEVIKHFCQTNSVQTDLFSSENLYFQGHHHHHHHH

In the case of `CCc1c(N2CCN(C(=O)c3cnn(C)c3)CC2)c(=O)n2nc(C3=CCOCC3)nc2n1CC(=O)NC1Cc2ccc(F)cc2C1` (stereo not shown) [I-248, 2-(2-(3,6-dihydro-2H-pyran-4-yl)-5-ethyl-6-(4-(1-methyl-1H-pyrazole-4-carbonyl)piperazin-1-yl)-7-oxo-[1,2,4]triazolo[1,5-a]pyrimidin-4(7H)-yl)-N-(5-fluoro-2,3-dihydro-1H-inden-2-yl)acetamide], in test [1], the IC50 lay in the range of 100 to 500 nM. For the same compound, the EC50 in test [2] (Homo sapiens, HCT-116, 24 h) is above 5000 nM.
Regarding `CCc1c(N2CCN(C(=O)c3ncc4c(c3O)CCO4)CC2)c(=O)n2nc(C3=CCOCC3)nc2n1CC(=O)NC12CC(C3CC3)(C1)C2` [I-9, N-(3-cyclopropylbicyclo[1.1.1]pentan-1-yl)-2-(2-(3,6-dihydro-2H-pyran-4-yl)-5-ethyl-6-(4-(4-hydroxy-2,3-dihydrofuro[2,3-c]pyridine-5-carbonyl)piperazin-1-yl)-7-oxo-[1,2,4]triazolo[1,5-a]pyrimidin-4(7H)-yl)acetamide], the IC50 in test [1] lay within 5 to 50 nM. Further, the EC50 in test [2] (Homo sapiens, HCT-116, 24 h) fell in the range of 500 to 2000 nM.
Consider `CCc1c(N2CCN(C(=O)c3ncc4c(c3O)CCO4)CC2)c(=O)n2nc(C3=CCOCC3)nc2n1CC(=O)NC12CC(C(C)C)(C1)C2` [I-15, 2-(2-(3,6-dihydro-2H-pyran-4-yl)-5-ethyl-6-(4-(4-hydroxy-2,3-dihydrofuro[2,3-c]pyridine-5-carbonyl)piperazin-1-yl)-7-oxo-[1,2,4]triazolo[1,5-a]pyrimidin-4(7H)-yl)-N-(3-isopropylbicyclo[1.1.1]pentan-1-yl)acetamide], for which, in test [1], the IC50 is 5 to 50 nM. The EC50 in test [2] (Homo sapiens, HCT-116, 24 h) is 500 to 2000 nM.
As for `CCc1c(N2CCN(C(=O)c3cccc(N4CCN(C)CC4)c3)[C@H]3CC[C@@H]32)c(=O)c2nn(C3=CCOCC3)nc2n1CC(=O)NC12CC(C(C)C)(C1)C2` [I-201, 2-(2-(3,6-dihydro-2H-pyran-4-yl)-5-ethyl-6-((1S,6S)-5-(3-(4-methylpiperazin-1-yl)benzoyl)-2,5-diazabicyclo[4.2.0]octan-2-yl)-7-oxo-2,7-dihydro-4H-[1,2,3]triazolo[4,5-b]pyridin-4-yl)-N-(3-isopropylbicyclo[1.1.1]pentan-1-yl)acetamide], the IC50 in test [1] is at most 5 nM. Besides, the EC50 in test [2] (Homo sapiens, HCT-116, 24 h) lay in the range of 500 to 2000 nM.
As to `CCc1c(N2CCN(C(=O)c3ncnc(C)c3O)[C@H]3CC[C@@H]32)c(=O)c2nc(N(C)C)cnc2n1CC(=O)NC12CC(C3CC3)(C1)C2` [I-232, N-(3-cyclopropylbicyclo[1.1.1]pentan-1-yl)-2-(2-(dimethylamino)-6-ethyl-7-((1S,6S)-5-(5-hydroxy-6-methylpyrimidine-4-carbonyl)-2,5-diazabicyclo[4.2.0]octan-2-yl)-8-oxopyrido[2,3-b]pyrazin-5(8H)-yl)acetamide], the IC50 in test [1] is 5 to 50 nM. Further, in test [2] (Homo sapiens, HCT-116, 24 h), the EC50 lay in the range of 500 to 2000 nM.
Turning to `CCc1c(N2CCN(C(=O)c3ncnc(C)c3O)CC2)c(=O)c2oc(-c3ccnc(OC)c3)nc2n1CC(=O)NC12CC(C(F)(F)F)(C1)C2` [I-17, 2-(5-ethyl-6-(4-(5-hydroxy-6-methylpyrimidine-4-carbonyl)piperazin-1-yl)-2-(2-methoxypyridin-4-yl)-7-oxooxazolo[4,5-b]pyridin-4(7H)-yl)-N-(3-(trifluoromethyl)bicyclo[1.1.1]pentan-1-yl)acetamide], in test [1], the IC50 is 5 to 50 nM. The EC50 in test [2] (Homo sapiens, HCT-116, 24 h) lay in the range of 2000 to 5000 nM.
The matching figures for `CCc1c(N2CCN(C(=O)c3ncnc(C)c3O)[C@H]3CC[C@@H]32)c(=O)c2nn(-c3ccnc(OC(F)F)c3)nc2n1CC(=O)NC12CC(C3CC3)(C1)C2` [I-223, N-(3-cyclopropylbicyclo[1.1.1]pentan-1-yl)-2-(2-(2-(difluoromethoxy)pyridin-4-yl)-5-ethyl-6-((1S,6S)-5-(5-hydroxy-6-methylpyrimidine-4-carbonyl)-2,5-diazabicyclo[4.2.0]octan-2-yl)-7-oxo-2,7-dihydro-4H-[1,2,3]triazolo[4,5-b]pyridin-4-yl)acetamide]: 5 to 50 nM and above 5000 nM.
Regarding `CCc1c(N2CCN(C(=O)c3ncnc(C)c3O)CC2)c(=O)n2nc(C3=CCOCC3)nc2n1CC(=O)NC12CC(C(C)C)(C1)C2` [I-234, 2-(2-(3,6-dihydro-2H-pyran-4-yl)-5-ethyl-6-(4-(5-hydroxy-6-methylpyrimidine-4-carbonyl)piperazin-1-yl)-7-oxo-[1,2,4]triazolo[1,5-a]pyrimidin-4(7H)-yl)-N-(3-isopropylbicyclo[1.1.1]pentan-1-yl)acetamide], the IC50 in test [1] was in the range of 5 to 50 nM. The EC50 in test [2] (Homo sapiens, HCT-116, 24 h) lay in the range of 500 to 2000 nM.
On to `CCc1c(C2=CCN(C(=O)c3ncnc(C)c3O)CC2C)c(=O)c2nn(-c3ccnc(OC)c3)nc2n1CC(=O)NC12CC(C(C)C)(C1)C2` (single isomer, unassigned) [I-98], for which the IC50 in test [1] was 5 to 50 nM. Besides, the EC50 in test [2] fell in the range of 500 to 2000 nM.
On to `CCc1c(N2CCN(C(=O)c3cccc4ncoc34)CC2)c(=O)n2nc(-c3ccnc(OC)c3)nc2n1CC(=O)NC12CC(C(C)C)(C1)C2` [I-213, 2-(6-(4-(benzo[d]oxazole-7-carbonyl)piperazin-1-yl)-5-ethyl-2-(2-methoxypyridin-4-yl)-7-oxo-[1,2,4]triazolo[1,5-a]pyrimidin-4(7H)-yl)-N-(3-isopropylbicyclo[1.1.1]pentan-1-yl)acetamide], for which the IC50 in test [1] lay in the range of 5 to 50 nM. The EC50 in test [2] (Homo sapiens, HCT-116, 24 h) lay in the range of 500 to 2000 nM.
Turning to `CCc1c(N2CCN(C(=O)c3ncnc(C)c3O)[C@H]3CC[C@@H]32)c(=O)c2cn(-c3ccnc(OC)c3)nc2n1CC(=O)NC12CC(C3CC3)(C1)C2` [I-212, N-(3-cyclopropylbicyclo[1.1.1]pentan-1-yl)-2-(6-ethyl-5-((1S,6S)-5-(5-hydroxy-6-methylpyrimidine-4-carbonyl)-2,5-diazabicyclo[4.2.0]octan-2-yl)-2-(2-methoxypyridin-4-yl)-4-oxo-2,4-dihydro-7H-pyrazolo[3,4-b]pyridin-7-yl)acetamide], in test [1], the IC50 lay within 5 to 50 nM. For the same compound, in test [2] (Homo sapiens, HCT-116, 24 h), the EC50 is at most 500 nM.
As for `CCc1c(N2CCN(C(=O)c3c(O)ccc4ncoc34)CC2)c(=O)n2nc(-c3ccnc(OC)c3)nc2n1CC(=O)NC12CC(C3CCC3)(C1)C2` [I-28, N-(3-cyclobutylbicyclo[1.1.1]pentan-1-yl)-2-(5-ethyl-6-(4-(6-hydroxybenzo[d]oxazole-7-carbonyl)piperazin-1-yl)-2-(2-methoxypyridin-4-yl)-7-oxo-[1,2,4]triazolo[1,5-a]pyrimidin-4(7H)-yl)acetamide], the IC50 in test [1] was at most 5 nM. In addition, the EC50 in test [2] (Homo sapiens, HCT-116, 24 h) was at most 500 nM.
Turning to `CCc1c(N2CCN(C(=O)c3cnn(C)c3)CC2)c(=O)n2nc(-c3ccnc(OC)c3)nc2n1CC(=O)NC1(C(O)c2ccccc2)CC1` (stereo not shown) [I-250, 2-(5-ethyl-2-(2-methoxypyridin-4-yl)-6-(4-(1-methyl-1H-pyrazole-4-carbonyl)piperazin-1-yl)-7-oxo-[1,2,4]triazolo[1,5-a]pyrimidin-4(7H)-yl)-N-(1-(hydroxy(phenyl)methyl)cyclopropyl)acetamide], the IC50 in test [1] lay in the range of 100 to 500 nM. Also, the EC50 in test [2] (Homo sapiens, HCT-116, 24 h) was above 5000 nM.
With `CCc1c(N2CCN(C(=O)c3ncnc(C)c3O)[C@H]3CC[C@@H]32)c(=O)n2nc(C3=CCOCC3)nc2n1CC(=O)NC12CC(C(C)C)(C1)C2` [I-222, 2-(2-(3,6-dihydro-2H-pyran-4-yl)-5-ethyl-6-((1S,6S)-5-(5-hydroxy-6-methylpyrimidine-4-carbonyl)-2,5-diazabicyclo[4.2.0]octan-2-yl)-7-oxo-[1,2,4]triazolo[1,5-a]pyrimidin-4(7H)-yl)-N-(3-isopropylbicyclo[1.1.1]pentan-1-yl)acetamide], the IC50 in test [1] is 5 to 50 nM. Moreover, the EC50 in test [2] (Homo sapiens, HCT-116, 24 h) is at most 500 nM.
